Assays:
[1] = PAMPA blood-brain barrier permeation (porcine brain lipid); assay type: in vitro ADME; details: for Papp at 2.5 h: PAMPA-BHE, PBS pH 7.4/EtOH 70:30, 2 h 30 min at 25° C., mean ± SD, read-out: Pe; for PAMPA prediction of central nervous system (CNS) penetration: from Pe in PAMPA-BHE
Source text: An essential requirement for drugs for the treatment of neurodegenerative diseases is the ability to cross the blood-brain barrier (BBB), as otherwise they could not act on the target of interest. Therefore, for compounds that are not permeable or located in the area of uncertainty, it may be necessary to properly convey a pharmaceutical formulation through methods known to an expert in the field, such as encapsulation. This capability can be predicted in vitro using a method known by the acronym PAMPA (Parallel Artificial Membrane Permeability Assay) described by Di et al (Di, L.; Kerns, E. H.; Fan, K.; McConnell, O. J.; Carter, G. T. Eur. J. Med. Chem. 2003, 38 (3), 223-232) and which has subsequently been fine-tuned in our research group. This method allows predicting the effective permeability through artificial membranes by means of a passive diffusion process.
First of all, it is necessary to validate the method, for which 10 commercial compounds are used whose penetration capacity in the central nervous system (CNS) is known and which are to be specified below, obtaining in this case a good linear correlation between the experimental permeability values (Pe) and those described (FIG. 1). This correlation line obtained following the pattern described in the bibliography allows establishing the limits to predict whether or not a compound can cross the blood-brain barrier. Thus, a compound is considered BBB permeable (SNC+) if it has a permeability>4.48×10^−6 cm-s^−1.
For the procedure, between 3-5 mg of caffeine, desipramine, enoxacin, hydrocortisone, ofloxacin, piroxicam and testosterone, 12 mg of promazine and 25 mg of atenolol and verapamil were taken and dissolved in EtOH (1000 μL). 100 μL of these solutions were taken and EtOH (1400 μL) and phosphate buffer (PBS) pH=7.4 (3500 μL) were added in order to achieve a final EtOH concentration of 30% v/v in solution. Finally, the dissolutions were filtered.
On the other hand, a PBS/EtOH solution (70:30) was added to each well of the acceptance plate (180 μL). The donor plate was impregnated with a porcine brain lipid solution (4 μL) dissolved in dodecane (20 mg mL^−1). After 5 min, dissolution of each compound was added to this plate (180 μL).
Of the compounds 1 to 10 evaluated, 1-2 mg were taken and dissolved in EtOH (1500 μL) and phosphate buffer (PBS) pH=7.4 (3500 μL), filtered and added to the donor plate. With these solutions, the wavelengths at which the compounds absorb are determined and the initial absorbance levels at these wavelengths are measured using a UV absorbance reader. Each sample was analyzed from two to five wavelengths, in three wells and in two independent experiments.
The donor plate was then deposited on the acceptor forming a kind of “sandwich” and incubated for 2 hours and 30 minutes at 25° C. In this way, the compounds will pass from the donor plate to the acceptor plate through the porcine brain lipid by passive diffusion. After that time, the donor plate is carefully removed and the concentration and final absorbance of both commercial and synthesized compounds is determined. The results obtained are expressed as the mean of the measurements [standard deviation (SD)] of the different experiments carried out and are shown in table 2.

[2] = molecular target: human recombinant CDC7/DBF4 (Homo sapiens, UniProt O00311); assay: CDC7 inhibition measurement (LanthaScreen Eu kinase binding, FRET); details: CDC7/DBF4 0.5 nM, 60 min at room temperature; read-out: CDC7 Lantha ™ CI50
Source text: The LanthaScreen Eu kinases inhibition assay uses an Alexa marker Fluor™ that binds to a kinase and is detected by the addition of an Eu-marked antibody. The binding of the marker and the antibody to the kinase results in a high degree of FRET, while the displacement of the marker by an inhibitor results in a loss of FRET. Unlike many other kinase activity tests, this is a simple mix and read test, with no developmental stages. This test method has been developed by Life Technologies and identifies competitive ATP kinase inhibitors, making them suitable for the detection of any compound that binds to the ATP site.
The compounds are evaluated at 1% DMSO (final) in the well. A mixture of human recombinant CDC7/DBF4 (0.5 nM), Eu-antiGST antibody (2 nM) and AlexaFluor marker (1 nM) has been used in a buffer of 50 mM HEPES pH 7.5, 0.01% BRIJ-35, 10 mM MgCl2, 1 mM EGTA in white plates of […], low volume, coded (Greiner cat. #784207), 160 nL (100×100% DMSO compound), 3.84 μL (buffer with CDC7/DBF4), 8.0 μL (antibody), 4.0 μL (marker) are added. Agitate 30 s and incubate at room temperature for 60 min. Then measure the fluorescence in the plate reader and analyze the data (Table 1).

[3] = molecular target: T1, human recombinant CDC7 (Homo sapiens, UniProt O00311); assay: CDC7 inhibition measurement (ADP-Glo technology); assay type: biochemical; details: ATP 10 μM, 60 min at room temperature; read-out: CDC7 ADP-Glo ™ CI50
T1 construct: purchased Promega V5089
Method: The method used is a non-radioactive enzyme inhibition assay using human recombinant CDC7. It is based on luminometric quantification of inhibition using the ADP-Glo™ Kinase Kit. In this test the luminescent signal correlates positively with the amount of adenosine diphosphate (ADP) and the activity of the kinase. […]
CDC7 enzyme inhibition studies were conducted using the promega kit: ADP-Glo™ Kinase Assay+CDC7/DBF4 Kinase Enzyme System (Catalogue No. V5089). ATP and other reagents were purchased in Sigma-Aldrich (St. Louis, Mo.). The trials were performed in a buffer solution using 96-well plates. The compound to be tested (5 μL, 40 μM dissolved in DMSO 4%) was added to each well followed by the enzyme (5 μL, 25 ng/well), ATP (5 μL, final concentration in well 10 μM) and PDKtidE (5 μL, 4 μg/well). It was then incubated for 60 minutes at room temperature and the reagent ADP-Glo™ (20 μL) was added and incubated again for 40 min at room temperature. After incubation, the kinase detection agent (40 μL) was added and incubated for 30 min at room temperature. Finally, the luminescence (integration time of 0.5-1 sec) was measured using a POLARstar Optima multimode reader polarimeter. Inhibition activities were calculated as a function of maximum activity, measured in the absence of inhibitor.

T1 sequence (O00311 whole entry): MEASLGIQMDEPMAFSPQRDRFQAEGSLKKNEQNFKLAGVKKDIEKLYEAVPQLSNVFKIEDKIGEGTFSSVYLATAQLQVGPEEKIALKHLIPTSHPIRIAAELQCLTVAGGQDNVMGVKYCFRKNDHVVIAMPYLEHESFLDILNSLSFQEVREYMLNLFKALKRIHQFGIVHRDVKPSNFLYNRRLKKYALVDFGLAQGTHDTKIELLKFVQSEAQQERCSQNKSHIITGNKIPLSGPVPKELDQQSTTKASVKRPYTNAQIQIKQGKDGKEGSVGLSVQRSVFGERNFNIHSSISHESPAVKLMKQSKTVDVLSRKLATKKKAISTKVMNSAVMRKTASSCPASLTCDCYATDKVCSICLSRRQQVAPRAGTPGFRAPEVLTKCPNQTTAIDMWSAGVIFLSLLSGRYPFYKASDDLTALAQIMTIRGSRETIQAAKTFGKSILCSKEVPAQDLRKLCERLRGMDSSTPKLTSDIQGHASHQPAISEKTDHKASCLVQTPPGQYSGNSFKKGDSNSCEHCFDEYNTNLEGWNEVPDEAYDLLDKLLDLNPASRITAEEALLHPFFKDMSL
T1 sequence (Q9UBU7 whole entry partner): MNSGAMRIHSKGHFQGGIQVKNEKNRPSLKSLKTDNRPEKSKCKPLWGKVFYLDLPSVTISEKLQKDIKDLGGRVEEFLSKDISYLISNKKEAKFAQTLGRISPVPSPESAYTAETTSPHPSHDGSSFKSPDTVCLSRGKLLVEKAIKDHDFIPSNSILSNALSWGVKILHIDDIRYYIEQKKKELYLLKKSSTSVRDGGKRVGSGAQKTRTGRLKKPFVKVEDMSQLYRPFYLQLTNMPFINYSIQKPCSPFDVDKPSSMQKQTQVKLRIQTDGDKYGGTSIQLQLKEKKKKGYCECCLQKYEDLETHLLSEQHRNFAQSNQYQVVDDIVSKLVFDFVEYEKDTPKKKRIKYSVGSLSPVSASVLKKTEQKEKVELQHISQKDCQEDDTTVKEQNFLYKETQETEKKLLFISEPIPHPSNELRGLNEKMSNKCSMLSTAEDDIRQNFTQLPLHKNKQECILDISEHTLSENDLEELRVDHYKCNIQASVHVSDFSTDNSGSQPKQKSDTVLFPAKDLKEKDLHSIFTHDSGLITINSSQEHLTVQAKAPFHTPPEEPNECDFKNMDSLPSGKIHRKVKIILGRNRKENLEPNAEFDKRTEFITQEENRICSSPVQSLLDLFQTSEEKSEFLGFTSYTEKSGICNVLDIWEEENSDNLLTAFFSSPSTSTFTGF
Chain of human recombinant CDC7/DBF4 (O00311 whole entry): as the sequence (O00311 whole entry) above
Chain of human recombinant CDC7/DBF4 (Q9UBU7 whole entry partner): as the sequence (Q9UBU7 whole entry partner) above

Row | melting point [°C] | Papp at 2.5 h [1] [×10⁻⁶ cm/s] | IC50 [2] [nM] | IC50 [3] [nM] | SMILES | PAMPA prediction of central nervous system (CNS) penetration [1]
1 | 221 to 222 | 13.2 ± 2 | 347 | 11200 ± 840 | c1ccc2c(CSc3ncnc4[nH]cnc34)cccc2c1 [Compound 2, 6-((Naphthalene-1-ylmethyl)thio)-9H-purine] | SNC+ (a compound is considered BBB permeable (SNC+) if it has a permeability>4.48×10^−6 cm-s^−1)
2 | 189 to 191 | 2.3 ± 0.2 | 335 | 8380 ± 270 | N#Cc1cccc(CSc2ncnc3[nH]cnc23)c1 [Compound 3] | SNC+/−
3 | – | 17.5 ± 0.9 | 245 | 9730 ± 1030 | FC(F)(F)c1ccccc1CSc1ncnc2[nH]cnc12 [Compound 4, 6-((2-(trifluoromethyl)benzyl)thio)-9H-purine] | SNC+ (a compound is considered BBB permeable (SNC+) if it has a permeability>4.48×10^−6 cm-s^−1)
4 | 198 to 200 | 12.2 ± 1.2 | 184 | 8460 ± 1050 | Clc1ccc(CSc2ncnc3[nH]cnc23)cc1 [Compound 5, 6-((4-chlorobenzyl)thio)-9H-purine] | SNC+ (a compound is considered BBB permeable (SNC+) if it has a permeability>4.48×10^−6 cm-s^−1)
5 | 197 to 199 | 7.2 ± 0.6 | 194 | 8980 ± 210 | Clc1cccc(COc2ncnc3[nH]cnc23)c1 [Compound 6, 6-((3-chlorobenzyl)oxy)-9H-purine] | SNC+ (a compound is considered BBB permeable (SNC+) if it has a permeability>4.48×10^−6 cm-s^−1)
6 | 180 to 182 | 16.3 ± 0.6 | – | 6900 ± 830 | FC(F)(F)c1cccc(CSc2ncnc3[nH]cnc23)c1 [Compound 7, 6-((3-(trifluoromethyl)benzyl)thio)-9H-purine] | SNC+ (a compound is considered BBB permeable (SNC+) if it has a permeability>4.48×10^−6 cm-s^−1)
7 | 193 to 195 | 3.9 ± 0.4 | – | 6540 ± 320 | O=[N+]([O-])c1cccc(CSc2ncnc3[nH]cnc23)c1 [Compound 10, 6-((3-nitrobenzyl)thio)-9H-purine] | SNC+/−
8 | – | – | 138 | 5290 ± 710 | Brc1cccc(CSc2ncnc3[nH]cnc23)c1 [Compound 11, 6-((3-bromobenzyl)thio)-9H-purine] | –
9 | – | 11.5 ± 0.7 | – | 9140 ± 790 | Brc1ccc(CSc2[nH]cnc3ncnc2-3)cc1 [Compound 12, 6-((4-bromobenzyl)thio)-9H-purine] | SNC+ (a compound is considered BBB permeable (SNC+) if it has a permeability>4.48×10^−6 cm-s^−1)
10 | 200 to 202 | 18.1 ± 1.2 | 92 | – | Clc1ccccc1CSc1ncnc2[nH]cnc12 [Compound 14, 6-((2-Chlorobenzyl)thio)-9H-purine] | SNC+ (a compound is considered BBB permeable (SNC+) if it has a permeability>4.48×10^−6 cm-s^−1)
11 | – | 5.3 ± 0.8 | – | – | COc1cccc(CSc2ncnc3[nH]cnc23)c1 [Compound 15, 6-((3-methoxybenzyl)thio)-9H-purine] | SNC+ (a compound is considered BBB permeable (SNC+) if it has a permeability>4.48×10^−6 cm-s^−1)
12 | 145 to 147 | 9.7 ± 1.4 | 2790 | – | CCOC(=O)c1ccccc1CSc1ncnc2[nH]cnc12 [Compound 16, Ethyl 2-(((9H-Purine-6-yl)thio)methyl)benzoate] | SNC+ (a compound is considered BBB permeable (SNC+) if it has a permeability>4.48×10^−6 cm-s^−1)
13 | – | 5.5 ± 1.3 | 127 | – | O=[N+]([O-])c1ccc(CSc2ncnc3[nH]cnc23)cc1 [Compound 17, 6-((4-nitrobenzyl)thio)-9H-purine] | SNC+ (a compound is considered BBB permeable (SNC+) if it has a permeability>4.48×10^−6 cm-s^−1)
14 | 223 to 225 | – | – | – | CC(=O)Nc1ccc(CSc2ncnc3[nH]cnc23)cc1 [Compound 18, 6-((4-Acetamidobenzyl)thio)-9H-purine] | –
15 | 228 to 230 | 2 ± 0.7 | – | – | N#Cc1ccc(CSc2ncnc3[nH]cnc23)cc1 [Compound 19, 6-((4-Cyanobenzyl)thio)-9H-purine] | SNC+/−
16 | – | 2.9 ± 0.9 | 167 | – | c1ccc(COc2[nH]cnc3ncnc2-3)cc1 [Compound 20, 6-((benzyl)oxy)-9H-purine] | SNC+/−
17 | – | 14 ± 1.4 | – | – | Brc1ccc(COc2ncnc3[nH]cnc23)cc1 [Compound 21, 6-((4-Bromobenzyl)oxy)-9H-purine] | SNC+ (a compound is considered BBB permeable (SNC+) if it has a permeability>4.48×10^−6 cm-s^−1)
18 | – | 13.5 ± 1.6 | 367 | – | FC(F)(F)c1ccc(CSc2ncnc3[nH]cnc23)cc1 [Compound 22, 6-(4-(trifluoromethyl)benzylthio)-9H-purine] | SNC+ (a compound is considered BBB permeable (SNC+) if it has a permeability>4.48×10^−6 cm-s^−1)
19 | 203 to 205 | 17.8 ± 0.7 | 146 | – | CSc1ccc(CSc2ncnc3[nH]cnc23)cc1 [Compound 23, 6-((4-(Methylthio)benzyl)thio)-9H-purine] | SNC+ (a compound is considered BBB permeable (SNC+) if it has a permeability>4.48×10^−6 cm-s^−1)
